Measurements: patent publication EP2987533B1, “7-substituted piperazin-1-yl fluoroquinolone compounds, their use in the treatment of cancer, pharmaceutical compositions and a method for preparation” (priority 2014, dated 2016)

System: 60 human tumor cell line panel
Assay: NCI 60 cell line one-dose SRB primary anticancer assay
Assay type: cell-based
Conditions: 60 cell lines assay in one dose, 10µM (title; head prints 10.0 mM), 48 h; for inhibition at 10 µM: Homo sapiens, read-out: MGI % (Mean growth inhibition percentage)
Procedure: A primary anticancer assay was performed for an approximately 60 human tumor cell line panel derived from nine neoplastic diseases, in accordance with the protocol of the Drug Evaluation Branch, National Cancer Institute, Bethesda, MD (Monks A. et al., J. Natl. Cancer Inst 1991, 83, 757-766; Boyd M.R. and Paull K.D., Drug. Dev. Res. 1995, 34, 91-109; Shoemaker R.H., Nat. Rev. Cancer 2006, 6, 813-823). Briefly, tested compounds were added to the culture at a single concentration (10^-5M), and the cultures were incubated for 48 h. End point determinations were made with a protein binding dye, sulforhodamine B (SRB). The results for each tested compound were reported as the growth percentage of the treated cells when compared to that of the untreated control cells. The percentage growth was evaluated spectrophotometrically versus controls not treated with test agents.

SMILES | Most sensitive cell lines | PCE (Positive cytotoxic effect: ratio between number of cell lines with percentage growth inhibition from 10 to >100 and total number of cell lines) | RGI % (Range of growth inhibition percentage) | inhibition at 10 µM
O=C(O)c1cn(C2CC2)c2cc(N3CCN(CCCN4C(=O)c5ccccc5C4=O)CC3)c(F)cc2c1=O [Compound 10b] | Leukemia (CCRF-CEM, PRMI-8226), Renal Cancer (UO-31) | 3/57 | 38.76 to 13.64% | -4.16%
O=C(O)c1cn(C2CC2)c2cc(N3CCN(CCN4CCOCC4)CC3)c(F)cc2c1=O [Compound 8b] | NSC Lung Cancer (HOP-92, NCI-H522), Melanoma ( MALME-3M), Renal Cancer (UO-31), Prostate Cancer (PC-3) | 5/57 | 24.51 to 10.05% | -2.2%
O=C(O)c1cn(C2CC2)c2cc(N3CCNCC3)c(F)cc2c1=O [Ciprofloxacin (b), Ciprofloxacin, reference compound] | Renal Cancer (UO-31, A498) | 2/57 | 28.85 to 13.76% | -1.41%
CCn1cc(C(=O)O)c(=O)c2cc(F)c(N3CCN(S(=O)(=O)c4ccc(OC)c(OC)c4)CC3)cc21 [Compound 4a] | Leukemia (MOLT-4, SR), CNS Cancer (SF-268, SNB-75) Melanoma (LOX IMVI, M14), Renal Cancer (UO-31), Prostate Cancer (PC-3), Breast Cancer (T-47D) | 9/58 |  | 2.33%
COc1ccc(S(=O)(=O)N2CCN(c3cc4c(cc3F)c(=O)c(C(=O)O)cn4C3CC3)CC2)c(OC)c1 [Compound 5b] | Leukemia (CCRF-CEM, HL-60(TB), K-562, MOLT-4, PRMI-8226, SR), NSC Lung Cancer (HOP-62, NCI-H226), CNS Cancer (SF-268, SF-539, SNB-19, SNB-75), Melanoma (LOX IMVI, SK-MEL-5, UACC-62), Renal Cancer (A498, UO-31), Breast Cancer (T-47D, MDA-MB-468) | 19/58 | 46.83 to 10.48% | 7.33%
O=C(O)c1cn(C2CC2)c2cc(N3CCN(S(=O)(=O)c4ccc(Cl)cc4)CC3)c(F)cc2c1=O [Compound 1b] | Melanoma (LOX IMVI, M14), Renal Cancer (A498, CAKI-1, UO-31), Prostate Cancer (PC-3), Breast Cancer (T-47D) | 7/53 | 59.75 to 10.12% | 3.5%
O=C(O)c1cn(C2CC2)c2cc(N3CCN(CCN4C(=O)c5ccccc5C4=O)CC3)c(F)cc2c1=O [Compound 9b] | CNS Cancer (SNB-75), Renal Cancer (UO-31), Breast Cancer (MCF7) | 3/58 | 36.83 to 13.18% | -2.69%
COc1ccc(S(=O)(=O)N2CCN(c3cc4c(cc3F)c(=O)c(C(=O)O)cn4C3CC3)CC2)cc1OC [Compound 4b] | NSC Lung Cancer (HOP-62, HOP-92), CNS Cancer (SNB-75), Melanoma (LOX IMVI), Renal Cancer (UO-31), Breast Cancer (T-47D) | 6/58 | 35.09 to 10.43% | 1.84%
